From article PMC4045134, “Discovery of Triterpenoids as Reversible Inhibitors of α/β-hydrolase Domain Containing 12 (ABHD12)” (PLoS ONE, 2014)

Columns and labels:
Format in all cases: biochemical
hABHD12 [1] = molecular target: T1, hABHD12 (Homo sapiens, UniProt Q8N2K0); test: LC-MS assay of ABHD12 activity (1-AG utilization / AA formation) in hABHD12-HEK293 lysates; conditions: n = 2, dose-response by LC-MS; for IC50: s.d.
T1 construct: expressed in transfected cells; host or cells: HEK293 (transient)
T1 sequence (Q8N2K0 1-398): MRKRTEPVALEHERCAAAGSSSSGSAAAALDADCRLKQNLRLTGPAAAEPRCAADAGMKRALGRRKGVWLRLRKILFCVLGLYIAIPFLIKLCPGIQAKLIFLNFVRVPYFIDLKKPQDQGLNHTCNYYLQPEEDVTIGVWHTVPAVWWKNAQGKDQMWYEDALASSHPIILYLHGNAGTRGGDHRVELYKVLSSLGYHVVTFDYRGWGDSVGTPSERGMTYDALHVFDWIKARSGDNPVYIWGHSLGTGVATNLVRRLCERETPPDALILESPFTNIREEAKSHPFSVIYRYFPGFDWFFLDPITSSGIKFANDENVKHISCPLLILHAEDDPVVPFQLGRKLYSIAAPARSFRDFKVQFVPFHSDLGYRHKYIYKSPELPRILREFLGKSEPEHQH
Experimental: The fluorescent glycerol assay was mimicked otherwise but instead of assaying glycerol, utilization of 1-AG and concomitant formation of AA was monitored by LC-MS analysis. […] Enzymatic reaction was stopped by adding 400 µL of cold 11 mM H3PO4 in acetonitrile. 150 µL aliquots were filtered using Captiva 96-well filter plate (0.2 µm, Agilent Technologies, USA) into the Captiva 96-well collection plate (Agilent Technologies, USA) containing 50 µL of 0.1% formic acid in H2O. The collection plate was centrifuged at 4°C for 10 minutes and the samples were analyzed by LC-MS. HPLC system consisted of an Agilent 1200 Series Rapid Resolution LC System (Agilent Technologies, Waldbronn, Germany) with a solvent micro vacuum degasser, a binary pump, a thermostatted column compartment, and an autosampler. The mass analysis was made with an Agilent 6410 Triple Quadrupole MS equipped with an electrospray ionization (ESI) source (Agilent Technologies, Palo Alto, CA, USA). Five microliters of the sample solution were injected onto a reversed-phase HPLC column (Zorbax Eclipse XDB-C18 Rapid Resolution HT 2.1 mm×50 mm, 1.8 µm) (Agilent Technologies, Palo Alto, CA, USA) using an isocratic mobile phase consisting of 0.1% formic acid in a solution of H2O and methanol (20∶80 v/v) delivered at 0.5 mL/min. Column temperature was maintained at 50°C and the autosampler tray temperature was set at 4°C. The following ionization conditions were used for 1-AG: positive ESI mode, drying gas (nitrogen) temperature 300°C, drying gas flow rate 8 L/min, nebulizer pressure 40 psi, and capillary voltage 4000 V. The following ionization conditions were used for AA: negative ESI mode, drying gas (nitrogen) temperature 300°C, drying gas flow rate 8 L/min, nebulizer pressure 40 psi, and capillary voltage 4000 V. Analyte detection was performed using multiple reaction monitoring (MRM) with the following transitions: m/z 379 → 287 for 1-AG and m/z 303 → 303 for AA. Fragmentor voltage and collision energy for 1-AG and AA were 130 V/8 V and 175 V/2 V, respectively. […] In addition, the 2-AG positional isomer is chromatographically separated from 1-AG with retention time 2.1 min, and the peak areas of 1-AG and 2-AG were subsequently combined for all quantitative analyses reported and are thus collectively termed “1-AG”. The calibration range of 0.1–2,000 ng/mL and 0.1–1,000 ng/mL was prepared for monitored 1-AG and AA, respectively. The lower limit of quantification (LLOQ) for both analytes, 1-AG and AA, was 1.0 ng/mL.

hABHD12 [2] = molecular target: T1, hABHD12; test: Fluorescent glycerol assay of 1-AG hydrolysis in hABHD12-HEK293 lysates; conditions: for remaining activity at 10 µM / IC50 / Emax: hABHD12-HEK293 lysates; for remaining activity at 10 µM: NI = no inhibition, read-out: Remaining activity at 10 µM % ± s.e.m.; for Emax: read-out: max inhibition (converted)
Experimental: (§1) Glycerol liberated from 1-AG hydrolysis was determined with a sensitive fluorescent assay using lysates of HEK293 cells with transient overexpression of hABHD12, hABHD6 or hMAGL, essentially as previously described. […] Fluorescence (λex 530; λem 590 nm) was monitored using a Tecan Infinite M200 plate reader (Tecan Group Ltd., Männedorf, Switzerland). Inhibitory activities of selected compounds towards FAAH were determined using membranes of hFAAH overexpressing COS-7 cells, essentially as previously described. The final incubation volume (100 µL) contained 1 µg of protein and the substrate concentration was 20 µM (10 nM of ^3H-anandamide having specific activity of 60 Ci/mmol and concentration of 1 mCi/mL).

hMAGL = molecular target: T2, hMAGL (Homo sapiens, UniProt Q99685); test: Fluorescent glycerol assay in hMAGL-HEK293 lysates; conditions: for remaining activity at 10 µM: read-out: hMAGL Remaining activity % control ± s.e.m (n=3)
T2 construct: expressed in transfected cells; host or cells: HEK293 (transient)
T2 sequence (Q99685 1-303): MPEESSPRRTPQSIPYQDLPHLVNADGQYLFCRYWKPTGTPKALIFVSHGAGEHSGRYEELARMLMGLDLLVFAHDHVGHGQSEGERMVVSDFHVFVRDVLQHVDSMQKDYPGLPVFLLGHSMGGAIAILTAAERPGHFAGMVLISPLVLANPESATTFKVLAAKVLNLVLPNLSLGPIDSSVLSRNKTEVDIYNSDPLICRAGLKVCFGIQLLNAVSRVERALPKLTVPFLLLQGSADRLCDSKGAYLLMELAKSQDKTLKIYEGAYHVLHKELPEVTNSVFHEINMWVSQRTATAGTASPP
Experimental: as §1

hABHD6 = molecular target: T3, hABHD6 (Homo sapiens, UniProt Q9BV23); test: Fluorescent glycerol assay in hABHD6-HEK293 lysates; conditions: for remaining activity at 10 µM: NI = no inhibition at 10 µM, read-out: hABHD6 Remaining activity % control ± s.e.m (n=3)
T3 construct: expressed in transfected cells; host or cells: HEK293 (transient)
T3 sequence (Q9BV23 1-337): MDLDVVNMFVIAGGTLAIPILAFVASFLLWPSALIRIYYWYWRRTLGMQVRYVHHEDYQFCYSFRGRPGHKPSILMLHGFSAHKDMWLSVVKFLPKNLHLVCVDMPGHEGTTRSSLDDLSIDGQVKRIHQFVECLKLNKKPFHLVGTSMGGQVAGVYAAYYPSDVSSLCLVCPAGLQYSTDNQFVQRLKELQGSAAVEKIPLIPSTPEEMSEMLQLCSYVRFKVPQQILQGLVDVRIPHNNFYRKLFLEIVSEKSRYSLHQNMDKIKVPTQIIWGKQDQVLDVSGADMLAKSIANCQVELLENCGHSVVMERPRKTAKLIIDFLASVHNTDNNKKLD
Experimental: as §1

hFAAH = molecular target: T4, hFAAH (Homo sapiens, UniProt O00519); test: FAAH activity, membranes of hFAAH overexpressing COS-7 cells, 3H-anandamide; conditions: read-out: hFAAH Remaining activity % control (mean (range)), n=2
T4 construct: expressed in transfected cells; host or cells: COS-7
T4 sequence (O00519 1-579): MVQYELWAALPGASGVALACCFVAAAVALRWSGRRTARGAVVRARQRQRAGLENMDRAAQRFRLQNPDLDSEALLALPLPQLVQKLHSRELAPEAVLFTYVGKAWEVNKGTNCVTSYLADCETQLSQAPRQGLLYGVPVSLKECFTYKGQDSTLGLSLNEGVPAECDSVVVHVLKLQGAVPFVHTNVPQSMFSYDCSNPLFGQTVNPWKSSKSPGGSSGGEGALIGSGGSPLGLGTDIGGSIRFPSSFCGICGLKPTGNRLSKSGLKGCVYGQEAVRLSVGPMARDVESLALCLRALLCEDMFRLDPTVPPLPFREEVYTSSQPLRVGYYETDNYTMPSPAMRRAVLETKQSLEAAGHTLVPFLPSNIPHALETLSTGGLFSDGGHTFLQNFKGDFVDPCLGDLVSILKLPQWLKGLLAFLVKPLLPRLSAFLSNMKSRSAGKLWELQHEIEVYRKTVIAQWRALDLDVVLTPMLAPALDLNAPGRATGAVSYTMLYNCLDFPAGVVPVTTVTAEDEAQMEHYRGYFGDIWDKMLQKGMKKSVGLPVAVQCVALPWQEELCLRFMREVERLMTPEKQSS
Experimental: as §1

hCB2R = molecular target: T5, hCB2R (Homo sapiens, UniProt P34972); test: [35S]GTPγS binding, CB2R agonist activity, hCB2R-CHO cell membranes
T5 construct: expressed in transfected cells; host or cells: CHO
T5 sequence (P34972 whole entry): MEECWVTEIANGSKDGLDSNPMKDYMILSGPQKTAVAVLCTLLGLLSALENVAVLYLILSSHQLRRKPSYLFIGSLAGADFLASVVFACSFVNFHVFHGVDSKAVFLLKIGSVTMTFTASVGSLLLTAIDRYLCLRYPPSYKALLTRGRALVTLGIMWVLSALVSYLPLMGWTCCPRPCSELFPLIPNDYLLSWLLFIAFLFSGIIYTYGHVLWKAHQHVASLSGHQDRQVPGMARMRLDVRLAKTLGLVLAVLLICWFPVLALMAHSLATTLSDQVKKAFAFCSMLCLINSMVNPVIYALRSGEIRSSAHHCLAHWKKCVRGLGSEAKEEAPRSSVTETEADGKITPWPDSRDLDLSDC

CB1R [3] = molecular target: T6, CB1R (Rattus norvegicus, UniProt P20272); test: [35S]GTPγS binding, CB1R agonist activity, rat cerebellar membranes
T6 construct: membranes prepared from brain tissue of 4-week-old male rodents were used; from tissue; host or cells: rat cerebellar membranes
T6 sequence (P20272 whole entry): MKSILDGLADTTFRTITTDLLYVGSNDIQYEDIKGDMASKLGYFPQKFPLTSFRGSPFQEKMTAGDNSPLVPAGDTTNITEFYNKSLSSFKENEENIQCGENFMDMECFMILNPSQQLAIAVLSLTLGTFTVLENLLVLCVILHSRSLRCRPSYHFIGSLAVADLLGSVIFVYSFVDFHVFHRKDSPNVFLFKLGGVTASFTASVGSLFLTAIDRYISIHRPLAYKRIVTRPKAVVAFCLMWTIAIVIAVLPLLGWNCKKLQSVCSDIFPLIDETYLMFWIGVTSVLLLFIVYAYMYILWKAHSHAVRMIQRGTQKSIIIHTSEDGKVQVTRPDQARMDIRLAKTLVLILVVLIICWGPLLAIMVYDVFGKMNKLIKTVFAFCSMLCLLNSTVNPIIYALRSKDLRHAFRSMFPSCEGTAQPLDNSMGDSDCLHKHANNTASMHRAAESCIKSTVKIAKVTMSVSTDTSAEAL
Experimental: (§2) The CB1 and CB2 receptor activity of the selected compounds (10 µM) were measured using the GTPγS binding assay according to the previously described methods, [33].
(§3) For ABPP experiments (Figure 6C) and cannabinoid receptor activity assays (Table S2), membranes prepared from brain tissue of 4-week-old male rodents were used. The animals were obtained from the National Laboratory Animal Centre, University of Eastern Finland. Approval for the harvesting of animal tissue was obtained from the local welfare officer of the University of Eastern Finland.

CB1R [4] = molecular target: T6, CB1R; test: [35S]GTPγS binding, CB1R antagonist activity, rat cerebellar membranes; conditions: 10 µM
Experimental: as §2, §3

[5] = three independent experiments, read-out: -logIC50±s.e.m. (converted)

Row | Molecule | IC50 (hABHD12 [1]) | IC50 (hABHD12 [2]; read-out: IC50) | Emax (hABHD12 [2]) | remaining activity at 10 µM (hFAAH) | remaining activity at 10 µM (hMAGL) | remaining activity at 10 µM (hABHD6) | further results
1 | C[C@H]1[C@H](C)CC[C@]2(C(=O)O)CC[C@]3(C)C(=CC[C@@H]4[C@@]5(C)CC[C@H](O)C(C)(C)[C@@H]5CC[C@]43C)[C@H]12 [Compound 4, Ursolic acid, reference compound] | 1820 nM |  |  |  |  |  | hABHD12 inhibitory activity (in words) (hABHD12 [2]): selectively inhibit ABHD12; remaining activity at 10 µM (hABHD12 [2]): ~30%; effect on MAGL activity (hMAGL; preliminary screening): negligible effect; effect on ABHD6 activity (hABHD6; preliminary screening): negligible effect
2 | C=C(C)[C@@H]1CC[C@]2(C(=O)O)CC[C@]3(C)[C@H](CC[C@@H]4[C@@]5(C)CCC(=O)NC(C)(C)[C@@H]5CC[C@]43C)[C@@H]12 [Compound 36] |  | 9.1 µM | 88% | 88% | 54.1 ± 4.7% | 80 ± 4.4% | 
3 | CC1(C)CC[C@]23CC[C@]4(C)C(CC[C@@H]5[C@@]6(C)Cc7c([nH]c8ccc(F)cc78)C(C)(C)[C@@H]6CC[C@]54C)[C@H]2[C@H]1OC3 (some centres unmarked) [Compound 35] |  |  |  |  |  |  | hABHD12 inhibitory activity (in words) (hABHD12 [2]): total loss of the inhibitory activity; remaining activity at 10 µM (hABHD12 [2]): > 100%; inhibition at 10 µM (hMAGL; read-out: inhibition of MAGL at 10 µM): ~50%
4 | SR144528 |  |  |  |  |  |  | CB2R agonist activity [35S]GTPγS binding % Basal (Mean (range), n=2) (hCB2R; 1 µM): 68 (60-76) % Basal
5 | CCCCCCC(C)(C)c1cc(O)c2c(c1)OC(C)(C)[C@@H]1CC=C(CO)C[C@@H]21 [HU210] |  |  |  |  |  |  | CB1R agonist activity [35S]GTPγS binding % basal ± SEM, n > 3 (CB1R [3]; reference compound at 1 µM): 430 ± 36 % Basal; CB2R agonist activity [35S]GTPγS binding % Basal (Mean (range), n=2) (hCB2R; 10 nM): 354 (348-361) % Basal
6 | C=C(C)[C@@H]1CC[C@]2(C(=O)O)CC[C@]3(C)[C@H](CC[C@@H]4[C@@]5(C)CC6OC(C)(C)OC6C(C)(C)[C@@H]5CC[C@]43C)[C@@H]12 (some centres unmarked) [Compound 31] |  | 7.5 µM | 90% | 91% | 82.7 ± 4.1% | 93.2 ± 3% | IC50 (hABHD12 [2]; [5]): 7.41 µM
7 | C=C(C)[C@@H]1CC[C@]2(C=NO)CC[C@]3(C)[C@H](CC[C@@H]4[C@@]5(C)CCC(=NO)C(C)(C)[C@@H]5CC[C@]43C)[C@@H]12 [Compound 25] | 3980 nM |  |  | 97% | 88.7 ± 4.2% | 103 ± 2.3% | max inhibition (hABHD12 [1]): 76%
8 | C=C(C)[C@@H]1CC[C@]2(C(=O)O)CC[C@]3(C)[C@H](CC[C@@H]4[C@@]5(C)CCC(=O)C(C)(C)[C@@H]5CC[C@]43C)[C@@H]12 [Compound 18] | 3310 nM |  |  |  |  |  | max inhibition (hABHD12 [1]): 100%
9 | C=C(C)[C@@H]1CC[C@]2(C(=O)O)CC[C@]3(C)[C@H](CC[C@@H]4[C@@]5(C)CC[C@H](O)C(C)(C)[C@@H]5CC[C@]43C)[C@@H]12 [Compound 1, Betulinic acid, reference compound] | 2510 nM |  |  | 83% | 76.7 ± 0.1% | ~70% | CB1R agonist activity [35S]GTPγS binding % Basal (Mean (range), n=2) (CB1R [3]; 10 µM): 91 (87-96) % Basal; CB1R antagonist activity [35S]GTPγS binding % HU210-evoked response (Mean (range), n=2) (CB1R [4]): 99 (98-99) % HU210-evoked response; CB2R agonist activity [35S]GTPγS binding % Basal (Mean (range), n=2) (hCB2R; 10 µM): 132 (106-158) % Basal
10 | C=C(C)[C@@H]1CC[C@]2(C=O)CC[C@]3(C)[C@H](CC[C@@H]4[C@@]5(C)CCC(=O)C(C)(C)[C@@H]5CC[C@]43C)[C@@H]12 [Compound 17] |  | 4.4 µM | 57% | 95% | 84.1 ± 4.8% | 93.6 ± 3.8% | IC50 (hABHD12 [2]; [5]): 4.47 µM
11 | C=C(C)[C@@H]1CC[C@]2(C=NO)CC[C@]3(C)[C@H](CC[C@@H]4[C@@]5(C)CC[C@H](O)C(C)(C)[C@@H]5CC[C@]43C)[C@@H]12 [Compound 24] |  | 6.5 µM | 61% | 95% | 86 ± 4.3% | 92.4 ± 3.9% | 
